Laboratory results from patent publication US20190119200A1, “TERTIARY AMIDES AND METHOD OF USE” (AbbVie Inc., priority 2016, published 2019).

Tests used:
Assay type in all cases: cell-based
LPAR1 [1] = molecular target: T1, LPAR1 (Homo sapiens, UniProt Q92633); assay: LPAR1 FLIPR Assay; conditions: U2OS cells stably expressing LPAR1, LPA (EC80), Calcium 6 FLIPR dye; for Emax: read-out: Maximum Inhibition
T1 construct: host or cells: U2OS
Method in brief: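 Calcium flux read-out (515-575 nm, FLIPR) in LPAR1-expressing U2OS cells after LPA challenge at EC80, given 3 min after compound addition; cells carried Calcium 6 dye loaded 2 h at 37° C. Eleven-point 3-fold dilutions were fitted with a four-parameter Hill equation for IC50.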

LPAR1 [2] = molecular target: T1, LPAR1; assay: LPAR1 Arrestin Assay (arrestin reporter assay); conditions: U2OS cells stably expressing the LPAR1 receptor, 200 nM 18:1 LPA (EC80); for Emax: read-out: Maximum Inhibition
Procedure: One day prior to the experiment, frozen U2OS cells stably expressing the LPAR1 receptor (Life Technologies, Grand Island, N.Y., #K1519A) were thawed, centrifuged at 1,000 rpm for 5 minutes to remove DMSO, and resuspended in FreeStyle™ media (Gibco, Grand Island, N.Y.). Forty microliters of cells were plated into PDL-coated 384-well plates (Greiner Bio-One, Monroe, N.C.) at 10,000 cells/well, and then the plates were incubated overnight in humidified 5% CO2 at 37° C. Test compounds were dissolved in DMSO, and 12-point, 1:3 dilution CRCs were prepared in duplicate; daughter plates were prepared by aliquoting 0.8 μL/well of test compound dilutions into 384-well plates. On the day of the assay, the daughter plates were diluted to 6× stocks using HEPES-buffered HBSS, then 10 μL of 6× test compounds were added to the cells, and the plates were incubated at 37° C. for one hour. After this 1 hour incubation, 10 μL of a 6× stock of the LPAR1 agonist, 18:1 LPA (Avanti Polar Lipids, Alabaster, Ala.), was prepared in HEPES-buffered HBSS+0.1% fatty acid-free BSA (Sigma, St. Louis, Mo.). The 6×LPA was added to all wells for a final concentration of 200 nM, which corresponds to the 18:1 LPA EC80 in this arrestin assay. The final DMSO concentration in the assay plate was 0.1%, and the final BSA concentration was 0.02%. After addition of LPA to all wells, the assay plates were incubated in humidified 5% CO2 at 37° C. for five hours. During the incubation period, 6× dye from the LiveBLAzer™-FRET B/G with CCF4-AM kit (Life Technologies, Grand Island, N.Y.) was prepared according to manufacturers' instructions. At the end of the 5 hour compound incubation, 10 μL of 6× dye was added to each well, and the assay plate was incubated for two hours in the dark at room temperature. Throughout the assay procedure, all volume additions were performed with a Biomek® NX liquid handler (Beckman Coulter, Indianapolis, Ind.). After the 2 hour dye-load, fluorescence was measured on an EnVision® Multilabel Plate Reader (Perkin Elmer, Waltham, Mass.) with an excitation filter at 409/20 nm and emission filters at 460/40 nm and 530/30 nm. Data processing was performed as recommended by the LiveBLAzer™-FRET B/G with CCF4-AM kit manual; all test compound CRCs were performed in duplicate with n≥3.

[3] = system: LPA-induced MCP-1 in NRK-49F cells; assay: LPA-induced MCP-1 AlphaLISA assay; conditions: Rattus norvegicus, final LPA 10 μM, 7 hours; for Emax: read-out: Maximum Inhibition
Method in brief: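 NRK-49F rat fibroblasts, serum-starved overnight, pretreated with compound for 30 min at 37 °C (1% DMSO final), then stimulated with 10 μM LPA final. MCP-1 in the supernatant was measured by mouse/rat CCL2 AlphaLISA. IC50 values came from four-parameter logistic fits of the ratio data.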

LPAR1 [4] = molecular target: T1, LPAR1; assay: IP-One HTRF Assay; conditions: U2OS cells stably expressing LPAR1, LPA stimulation, IP-One Tb HTRF kit; for Emax: read-out: Maximum Inhibition
Procedure: U2OS cells stably expressing LPAR1 (Life Technologies #K1519A) were plated at 20000 cells/well in growth medium (McCoy's 5A(Life Technologies #16600-082)) with 10% dFBS (Life Technologies #26400-036), 0.1 mM non-essential amino acids, 25 mM HEPES, 1 mM sodium pyruvate, 1% penicillin/streptomycin, 50 μg/mL hygromycin, and 100 μg/mL Geneticin® in tissue culture treated 384-well white plates (Greiner #781080) in humidified 5% CO2 at 37° C. overnight. On the day of the assay, culture medium was replaced with 30 μL/well of McCoy's 5A with 0.1% BSA. Cells were incubated in humidified 5% CO2 at 37° C. for 3 more hours. Compounds were 3-fold serial diluted from 2 mM for 11-points using dimethyl sulfoxide. 1 μL of compound in DMSO was diluted in 50 μL stimulation buffer from an IP-One Tb HTRF kit (Cisbio #62IPAPEB) immediately before assay. 15 μL/well of 1.33× compound in stimulation buffer was added to cells after removal of culture medium. After 20 minutes of incubation at 37° C., 5 μL/well of 8 μM LPA diluted in stimulation buffer with 0.1% fatty acid free BSA was added to cells. […]. To EC100 wells were added 4×20 μM LPA. To the cells were added 5 μL/well IP1-d2 conjugate and 5 μLwell IP1-K antibody after 2 hours of incubation at 37° C. Cells were incubated at room temperature for 1 hour (protected from light). The plate was then read at 665 nm and 615 nm using an EnVision® Multilabel Plate Reader. IC50 values were calculated from curve fits of the ratio data using a four-parameter logistic Hill equation (Assay Explorer 3.3 Client).

T1 sequence (Q92633 whole entry): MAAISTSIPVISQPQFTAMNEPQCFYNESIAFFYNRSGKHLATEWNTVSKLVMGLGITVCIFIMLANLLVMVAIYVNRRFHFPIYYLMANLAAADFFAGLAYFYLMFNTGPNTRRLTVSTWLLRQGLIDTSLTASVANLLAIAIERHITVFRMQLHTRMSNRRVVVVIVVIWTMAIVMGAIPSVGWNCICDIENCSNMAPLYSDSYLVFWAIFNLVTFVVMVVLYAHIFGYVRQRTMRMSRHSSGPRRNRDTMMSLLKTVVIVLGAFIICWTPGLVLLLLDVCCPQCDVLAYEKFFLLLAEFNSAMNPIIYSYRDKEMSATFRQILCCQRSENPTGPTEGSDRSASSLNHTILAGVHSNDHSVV

Row | SMILES | IC50 (LPAR1 [1]) [nM] | Emax (LPAR1 [1]) [%] | IC50 (LPAR1 [2]) [nM] | Emax (LPAR1 [2]) [%] | IC50 [3] [nM] | Emax [3] [%] | IC50 (LPAR1 [4]) [nM] | Emax (LPAR1 [4]) [%]
1 | COc1ccc(C2(C(=O)N(CCCCC(=O)O)CCCc3ccccc3)COC2)cc1 [Example 89, 5-{[3-(4-methoxyphenyl)oxetane-3-carbonyl](3-phenylpropyl)amino}pentanoic Acid] | 36 | 95 | 445 | 114 | 4700 | 65 |  | 
2 | COc1cc(C(=O)N(CCCCC(=O)O)CCCc2ccccc2)c(F)c(OC)c1F [Example 30, 5-[(2,4-difluoro-3,5-dimethoxybenzoyl)(3-phenylpropyl)amino]pentanoic Acid] | 42 | 96 | 618 | 118 | 743 | 74 |  | 
3 | CNS(=O)(=O)NC(=O)CCCCN(CCCc1ccccc1)C(=O)c1cc(OC)cc(OC)c1 [Example 74, 3,5-dimethoxy-N-{5-[(methylsulfamoyl)amino]-5-oxopentyl}-N-(3-phenylpropyl)benzamide] | 79 | 67 |  |  | 3880 | 77 | 1180 | 63
4 | COc1cc(C(=O)N(CCCc2ccccc2)CC(=O)NC2(C(=O)O)Cc3ccccc3C2)cc(OC)c1C [Example 1, 2-{[N-(3,5-dimethoxy-4-methylbenzoyl)-N-(3-phenylpropyl)glycyl]amino}-2,3-dihydro-1H-indene-2-carboxylic Acid] | 45 | 74 |  |  | 1540 | 66 | 1210 | 75
5 | COc1cc(C(=O)N(CCCc2c(F)cccc2F)CCOCC(=O)O)cc(OC)c1C [Example 128, (2-{[3-(2,6-difluorophenyl)propyl](3,5-dimethoxy-4-methylbenzoyl)amino}ethoxy)acetic Acid] | 23 | 89 |  |  | 1080 | 78 | 1800 | 101
6 | COc1cc(C(=O)N(CCCCCC(=O)O)CCCc2ccccc2)cc(OC)c1C [Example 5, 6-[(3,5-dimethoxy-4-methylbenzoyl)(3-phenylpropyl)amino]hexanoic Acid] | 27 | 97 |  |  | 286 | 97 | 313 | 105
7 | COc1cc(C(=O)N(CCCCC(=O)O)CCCc2cccc(C)c2)cc(OC)c1C [Example 11, 5-{(3,5-dimethoxy-4-methylbenzoyl)[3-(3-methylphenyl)propyl]amino}pentanoic Acid] | 15 | 96 |  |  | 247 | 91 | 253 | 88
8 | COc1cc(C(=O)N(CCCc2ccccc2)CCOCC2(C(=O)O)CC2)cc(OC)c1C [Example 59, 1-({2-[(3,5-dimethoxy-4-methylbenzoyl)(3-phenylpropyl)amino]ethoxy}methyl)cyclopropane-1-carboxylic Acid] | 23 | 100 |  |  | 127 | 93 | 449 | 88
9 | COc1cc(C(=O)N(CCCc2ccccc2)CCSCC2(C(=O)O)CC2)cc(OC)c1C [Example 61, 1-[({2-[(3,5-dimethoxy-4-methylbenzoyl)(3-phenylpropyl)amino]ethyl}sulfanyl)methyl]cyclopropane-1-carboxylic Acid] | 20 | 98 |  |  | 147 | 92 | 114 | 85
10 | COc1cc(OC)cc(C(=O)N(CCCc2ccccc2)CCCC(C)C(=O)O)c1 (stereo not drawn) [Example 98, 5-[(3,5-dimethoxybenzoyl)(3-phenylpropyl)amino]-2-methylpentanoic Acid] | 29 | 87 |  |  | 4580 | 66 | 836 | 76
11 | COc1cc(OC)cc(C(=O)N(CCCc2ccccc2)CCCC(C)(C)C(=O)O)c1 [Example 108, 5-[(3,5-dimethoxybenzoyl)(3-phenylpropyl)amino]-2,2-dimethylpentanoic Acid] | 26 | 94 |  |  | 668 | 83 | 230 | 82
12 | CNS(=O)(=O)NC(=O)CCCCN(CCCc1ccccc1)C(=O)C1(c2ccc(OC)cc2)CC1 [Example 73, 1-(4-methoxyphenyl)-N-{5-[(methylsulfamoyl)amino]-5-oxopentyl}-N-(3-phenylpropyl)cyclopropane-1-carboxamide] | 60 | 65 |  |  | 5160 | 79 | > 30000 | 44
13 | COc1cc(C(=O)N(CCCCC(=O)O)CCCc2ccc(C)o2)cc(OC)c1C [Example 138, 5-{(3,5-dimethoxy-4-methylbenzoyl)[3-(5-methylfuran-2-yl)propyl]amino}pentanoic Acid] | 13 | 89 |  |  | 1010 | 85 | 201 | 87
14 | COc1cc(C(=O)N(CCCCC(=O)O)CCCc2ccc(C)s2)cc(OC)c1C [Example 41, 5-{(3,5-dimethoxy-4-methylbenzoyl)[3-(5-methylthiophen-2-yl)propyl]amino}pentanoic Acid] | 22 | 97 |  |  | 335 | 88 | 191 | 100
15 | COc1cc(C(=O)N(CCCCC(=O)NS(=O)(=O)c2ccccn2)CCCc2ccccc2)cc(OC)c1C [Example 141, 3,5-dimethoxy-4-methyl-N-{5-oxo-5-[(pyridine-2-sulfonyl)amino]pentyl}-N-(3-phenylpropyl)benzamide] | 28 | 94 |  |  | 143 | 84 | 200 | 76
16 | COc1cc(C(=O)N(CCCc2ccccc2)CCOC(C)(C)C(=O)O)cc(OC)c1C [Example 55, 2-{2-[(3,5-dimethoxy-4-methylbenzoyl)(3-phenylpropyl)amino]ethoxy}-2-methylpropanoic Acid] | 22 | 100 |  |  | 111 | 93 | 89 | 98
